Legend:
[1] = test system: Toll-like receptor (TLR) on human monocytes; test: IL-6 production in human monocytes stimulated with other TLR activating factors (Pam3Csk4, MALP-2, Flagellin, R-848); format: cell-based; conditions: 5 μM GM3 molecular species, 18 hours (FIG. 12)
Description: (§1) Human peripheral blood-derived monocytes (CD14 positive cells) were cultured in DMEM (Low Glucose) containing 0.5% FCS and 25 ng/mL of granulocyte/macrophage colony stimulating factor, and co-stimulated with 0.125 ng/mL of E. coli-derived lipopolysaccharide (LPS, E. coli O111:B4), and 1.25, 2.5, or 5.0 μM of N-mix (neutral glycosphingolipid mixture (Glc-Cer, Lac-Cer, Gb3, and Gb4)) or each of the ganglioside molecular species. 18 hours later, the inflammatory cytokines (IL-6, IL-1β, and TNF-α) secreted in the culture supernatant were quantitated using the ELISA method.
(§2) Then, under the same culture conditions as in Example 5, human monocytes were stimulated using any of 0.125 ng/mL of LPS (i.e., TLR4 activating factor), 5.0 μg/mL of high mobility group box 1 (HMGB 1) (i.e., a TLR4 and TLR2 activating factors), 20 ng/mL of Pam3Csk4 (i.e., a TLR1 and TLR2 activating factors), 1.0 ng/mL of MALP-2 (i.e., TLR2 and TLR6 activating factors), 50 ng/mL of Flagellin (i.e., a TLR5 activating factor), and 250 ng/mL of R-848 (i.e., TLR7 and TLR8 activating factors); and 5 μM of GM3 molecular species. 18 hours later, the inflammatory cytokine IL-6 secreted in the culture supernatant was quantitated using the ELISA method.

[2] = test system: TLR4 and TLR2; test: IL-6 production in human monocytes stimulated with HMGB1 (TLR4 and TLR2 activating factor); format: cell-based; conditions: HMGB 1 5.0 μg/mL, 5 μM GM3 molecular species, 18 hours (FIG. 12)
Description: as §1, §2

[3] = test system: TLR4; test: IL-6 production in human monocytes stimulated with LPS (TLR4 activating factor); format: cell-based; conditions: LPS 0.125 ng/mL, 5 μM GM3 molecular species, 18 hours (FIG. 12)
Description: as §1, §2

[4] = test system: Human peripheral blood-derived monocytes (CD14 positive cells); test: LPS-dependent inflammatory cytokine production in human peripheral blood-derived monocytes (ELISA); format: cell-based; conditions: LPS 0.125 ng/mL + 1.25, 2.5, or 5.0 μM ganglioside; for production of IL-6 by LPS: 18 hours (FIG. 8); for production of IL-1β by LPS: 18 hours (FIG. 9); for production of TNF-α by LPS: 18 hours (FIG. 10)
Description: as §1

[5] = test system: RAW 264.7 cells; test: Cooperative TNF-α production by LPS and GM3 in RAW 264.7 cells (ELISA); format: cell-based, mouse; conditions: LPS 0.5 ng/mL; for TNF-α production by LPS and GM3 on addition of 1 μM or less of ganglioside: 1 μM (GM3 ratio; 10:1) or less, GM3 5.0 μM (FIG. 5); for synergistic increases in productions of TNF-α by GM3 and LPS: glycosphingolipid 0.25 to 1.0 μM
Description: RAW 264.7 cells cultured overnight in DMEM containing 0.5% fetal bovine serum were co-stimulated by each glycosphingolipid (0.25 to 1.0 μM), LPS (0.5 ng/mL), and GM3 (5.0 μM). 18 hours later, the TNF-α in the culture supernatant was quantitated by the ELISA method.

[6] = test system: bone marrow-derived macrophages (BMDMs); test: LPS-dependent TNF-α production in bone marrow-derived macrophages (ELISA); format: cell-based, mouse; conditions: LPS 0.5 ng/mL + glycosphingolipid 10 μM, 18 hours (FIG. 6)
Description: Bone marrow-derived cells harvested from the femur and tibia of C57/BL6 mice were induced to differentiate for one week using 20 ng/mL of recombinant macrophage colony-stimulating factor (M-CSF). The obtained bone marrow-derived macrophages (BMDMs) were cultured overnight in DMEM containing 0.5% fetal bovine serum and co-stimulated with LPS (0.5 ng/mL) and each glycosphingolipid (10 μM). 18 hours later, the TNF-α in the culture supernatant was quantitated by the ELISA method.

[7] = test system: bone marrow-derived macrophages (BMDMs); test: Cooperative TNF-α production by LPS and GM3 in bone marrow-derived macrophages (ELISA); format: cell-based, mouse; conditions: LPS 0.5 ng/mL, GM3 10 μM, glycosphingolipid 10 μM, 18 hours (FIG. 7)
Description: Bone marrow-derived cells harvested from the femur and tibia of C57/BL6 mice were induced to differentiate for one week using 20 ng/mL of recombinant macrophage colony-stimulating factor (M-CSF). The obtained bone marrow-derived macrophages (BMDMs) were cultured overnight in DMEM containing 0.5% fetal bovine serum and co-stimulated with LPS (0.5 ng/mL), GM3 (10 μM), and each glycosphingolipid (10 μM). After 18 hours, the TNF-α in the culture supernatant was quantified by the ELISA method.

[8] = test system: RAW 264.7 cells; test: LPS-dependent TNF-α production in RAW 264.7 cells (ELISA); format: cell-based, mouse; conditions: for TNF-α production by LPS on addition of 1 μM or less of ganglioside: LPS 2.0 ng/mL (FIG. 4); for TNF-α production by LPS: LPS 0.5 ng/mL + each glycosphingolipid 1.0 μM, 0.5% fetal bovine serum, 18 hours (FIG. 3); for inflammation promoted by LPS (LPS-dependent TNF-α production): LPS 2.0 ng/mL + glycosphingolipid 0.25 to 2.0 μM, 18 hours (FIG. 4)
Description: A serum ganglioside mimic resembling the composition of these gangliosides was used to treat a macrophage-like cultured cell line in which the serum in the medium was removed and reduced: RAW 264.7 cells (0.5% fetal bovine-derived serum). Then, an actual influence on TNF-α production by TLR4 ligand (LPS) stimulation was examined.
RAW 264.7 cells cultured overnight in DMEM containing 0.5% fetal bovine serum were co-stimulated by 0.5 ng/mL of lipopolysaccharide (LPS) and ganglioside (serum ganglioside mimic) at a concentration resembling the composition of serum ganglioside. 18 hours later, the TNF-α in the culture supernatant was quantitated by an ELISA method.
RAW 264.7 cells cultured overnight in DMEM containing 0.5% fetal bovine serum were co-stimulated by LPS (0.5 ng/mL) and each glycosphingolipid (1.0 μM). 18 hours later, the TNF-α in the culture supernatant was quantitated by the ELISA method.
RAW 264.7 cells cultured overnight in DMEM containing 0.5% fetal bovine serum were co-stimulated by LPS (2.0 ng/mL) and each glycosphingolipid (0.25 to 2.0 μM). 18 hours later, the TNF-α in the culture supernatant was quantitated by the ELISA method.

[9] = test system: TLR1 and TLR2; test: IL-6 production in human monocytes stimulated with Pam3Csk4 (TLR1 and TLR2 activating factor); format: cell-based; conditions: Pam3Csk4 20 ng/mL, 5 μM GM3 molecular species, 18 hours (FIG. 12)
Description: as §1, §2

[10] = test system: human monocytes; test: IL-6 production in human monocytes by LPS with or without GM3C22 or GM3C24 (ELISA); format: cell-based; conditions: for production of IL-6 in response to stimulation promoted by the addition of GM3C22 and GM3C24: LPS 0.06 ng/mL + GM3C22 or GM3C24, 18 hours (FIG. 11); for production of IL-6 in response to LPS stimulation: LPS 0.06 ng/mL only, 18 hours (FIG. 11)
Description: as §1
Under the same culture conditions as in Example 5, “GM3C16”, “GM3C18” or “GM3C24:1” which inhibited inflammation was combined to “GM3C22” or “GM3C24” which promoted inflammation. The resultant combination was added to the monocytes and further stimulated with 0.06 ng/mL of LPS (i.e., a TLR4 activating factor). 18 hours later, the inflammatory cytokine IL-6 secreted in the culture supernatant was quantitated using the ELISA method.

Compound | IL-6 production in other TLR activating factors [1] | IL-6 production by HMGB1 [2] | IL-6 production by LPS [3] | production of IL-6 by LPS [4] | production of IL-1β by LPS [4] | production of TNF-α by LPS [4] | TNF-α production by LPS and GM3 on addition of 1 μM or less of ganglioside [5] | synergistic increases in productions of TNF-α by GM3 and LPS ([5]; GM3 5.0 μM, 18 hours (FIG. 5)) | LPS-dependent TNF-α production in bone marrow-derived macrophages [6] | cooperative TNF-α production by LPS and GM3 in bone marrow-derived macrophages [7] | TNF-α production by LPS on addition of 1 μM or less of ganglioside [8] | TNF-α production by LPS [8] | inflammation promoted by LPS (LPS-dependent TNF-α production) [8] | IL-6 production by Pam3Csk4 [9] | production of IL-6 in response to stimulation promoted by the addition of GM3C22 and GM3C24 [10] | production of IL-6 in response to LPS stimulation [10] | IC50 ([5]; TNF-α production, GM3 5.0 μM, 18 hours (FIG. 5), read-out: 50% inhibitory concentration for cooperative activation of LPS and GM3)
CCCCCCCCCCCCCC=CC(O)C(COC1OC(CO)C(OC2OC(CO)C(O)C(OC3(C(=O)O)CC(O)C(NC(C)=O)C(C(O)C(O)CO)O3)C2O)C(O)C1O)NC(=O)C(O)CCCCCCCCCCCCCCCCCCCCCC (stereo not drawn) [GM3hC24, reference compound] | no increase | selectively increased | selectively increased | significantly enhanced | significantly enhanced | significantly enhanced | – | – | – | – | – | – | – | – | – | – | –
GD1a | – | – | – | – | – | – | almost completely inhibited | inhibited in a concentration-dependent manner | inhibited | strongly inhibited | almost completely inhibited | strongly inhibited | inhibited in a concentration-dependent manner | – | – | – | –
CCCCCCCCCCCCCC=CC(O)C(COC1OC(CO)C(OC2OC(CO)C(O)C(OC3(C(=O)O)CC(O)C(NC(C)=O)C(C(O)C(O)CO)O3)C2O)C(O)C1O)NC(=O)CCCCCCCCCCCCCCCCCCCCCCC (stereo not drawn) [GM3C24, reference compound] | no increase | selectively increased | selectively increased | significantly enhanced | significantly enhanced | significantly enhanced | – | – | – | – | – | – | – | – | – | – | –
CCCCCCCCCCCCCC=CC(O)C(COC1OC(CO)C(OC2OC(CO)C(O)C(OC3(C(=O)O)CC(O)C(NC(C)=O)C(C(O)C(O)CO)O3)C2O)C(O)C1O)NC(=O)CCCCCCCCCCCCCCCCCCCCC (stereo not drawn) [GM3C22, reference compound] | no increase | selectively increased | selectively increased | significantly enhanced | significantly enhanced | significantly enhanced | – | – | – | – | – | – | – | – | – | – | –
CCCCCCCCC=CCCCCCCCCCCCCCC(=O)NC(COC1OC(CO)C(OC2OC(CO)C(O)C(OC3(C(=O)O)CC(O)C(NC(C)=O)C(C(O)C(O)CO)O3)C2O)C(O)C1O)C(O)C=CCCCCCCCCCCCCC (stereo not drawn) [GM3C24:1] | – | inhibitory action | inhibitory action | inhibiting | inhibiting | inhibiting | – | – | – | – | – | – | – | inhibitory action was also observed | strongly inhibited | strongly inhibited | –
CCCCCCCCCCCCCC=CC(O)C(COC1OC(CO)C(OC2OC(CO)C(O)C(OC3(C(=O)O)CC(O)C(NC(C)=O)C(C(O)C(O)CO)O3)C2O)C(O)C1O)NC(=O)CCCCCCCCCCCCCCC (stereo not drawn) [GM3C16] | – | inhibitory action | inhibitory action | inhibiting | inhibiting | inhibiting | – | – | – | – | – | – | – | inhibitory action was also observed | strongly inhibited | strongly inhibited | –
α-Neu5Ac-(2-3)β-Gal-(1-4)-β-Glc-(1-1)-ceramide [GM3, reference compound] | – | – | – | – | – | – | – | – | – | – | – | significantly increased | – | – | – | – | –
GT1b | – | – | – | – | – | – | almost completely inhibited | inhibited in a concentration-dependent manner | inhibited | strongly inhibited | almost completely inhibited | significantly strongly inhibited | inhibited in a concentration-dependent manner | – | – | – | 250 nM
GD1b | – | – | – | – | – | – | almost completely inhibited | inhibited in a concentration-dependent manner | inhibited | strongly inhibited | almost completely inhibited | significantly strongly inhibited | inhibited in a concentration-dependent manner | – | – | – | –

From patent US10849926B2, “GM3-promoted inflammation inhibitor and inflammatory cytokine production inhibitor” (THE NOGUCHI INSTITUTE, priority 2015, dated 2020)
